Measurements published in US12371428B2 (Exelixis, Inc., priority 2019, dated 2025).

Experiments:
[1] = molecular target: Human KDR (residues 790-1356) (Homo sapiens (Human), UniProt P35968); assay: Human KDR kinase assay, HTRF KinEase (Example B-2); assay type: biochemical; conditions: protocol of Example B-2
Procedure, shortened: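 Ten compound concentrations (3% DMSO final) were pre-plated, then KDR (790-1356) with biotinylated peptide in Mg/Mn/DTT buffer was added; ATP at Km (4.0 μM) started a 40 min room-temperature reaction. Detection used Eu-TK antibody and SA-XL665 in EDTA buffer; activity normalized to DMSO and reference inhibitor, IC50 by logistic fit.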

[2] = molecular target: Human MET (residues 956-1390) (Homo sapiens (Human), UniProt P08581); assay: Human Met kinase assay, HTRF KinEase (Example D-2); assay type: biochemical; conditions: protocol of Example D-2; read-out: c-Met IC50
Human MET (residues 956-1390), sequence (P08581 956-1390): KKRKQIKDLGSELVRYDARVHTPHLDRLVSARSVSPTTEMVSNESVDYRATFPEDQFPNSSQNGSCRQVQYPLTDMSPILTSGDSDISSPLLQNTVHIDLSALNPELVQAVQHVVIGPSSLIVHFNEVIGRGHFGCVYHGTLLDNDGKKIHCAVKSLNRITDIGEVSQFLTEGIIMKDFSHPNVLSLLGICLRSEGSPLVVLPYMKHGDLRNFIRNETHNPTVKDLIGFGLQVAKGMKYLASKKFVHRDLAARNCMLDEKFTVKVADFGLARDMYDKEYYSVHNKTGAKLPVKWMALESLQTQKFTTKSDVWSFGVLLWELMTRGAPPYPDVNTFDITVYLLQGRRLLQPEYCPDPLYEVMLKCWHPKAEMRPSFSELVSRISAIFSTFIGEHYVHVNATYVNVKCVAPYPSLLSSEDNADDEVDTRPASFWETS
Procedure, shortened: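 HTRF KinEase assay on MET residues 956-1390 (0.1 ng/well) in buffer with 5 mM MgCl2, 1 mM DTT and 1 mM MnCl2, with biotinylated peptide substrate, ATP at Km, 10 compound concentrations and 3% DMSO final, run 40 min at room temperature. The […] signal was normalized to DMSO and to 1 μM reference compound, and IC50 came from a 4-parameter logistic fit.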

[3] = molecular target: KDR (phospho-KDR, VEGF165-stimulated HUVEC cells) (Homo sapiens (Human), UniProt P35968); assay: KDR autophosphorylation ELISA in HUVEC cells (Example G); assay type: cell-based; conditions: cellular activity; KDR autophosphorylation ELISA in HUVEC cells
KDR (phospho-KDR, VEGF165-stimulated HUVEC cells), sequence (P35968 20-1356): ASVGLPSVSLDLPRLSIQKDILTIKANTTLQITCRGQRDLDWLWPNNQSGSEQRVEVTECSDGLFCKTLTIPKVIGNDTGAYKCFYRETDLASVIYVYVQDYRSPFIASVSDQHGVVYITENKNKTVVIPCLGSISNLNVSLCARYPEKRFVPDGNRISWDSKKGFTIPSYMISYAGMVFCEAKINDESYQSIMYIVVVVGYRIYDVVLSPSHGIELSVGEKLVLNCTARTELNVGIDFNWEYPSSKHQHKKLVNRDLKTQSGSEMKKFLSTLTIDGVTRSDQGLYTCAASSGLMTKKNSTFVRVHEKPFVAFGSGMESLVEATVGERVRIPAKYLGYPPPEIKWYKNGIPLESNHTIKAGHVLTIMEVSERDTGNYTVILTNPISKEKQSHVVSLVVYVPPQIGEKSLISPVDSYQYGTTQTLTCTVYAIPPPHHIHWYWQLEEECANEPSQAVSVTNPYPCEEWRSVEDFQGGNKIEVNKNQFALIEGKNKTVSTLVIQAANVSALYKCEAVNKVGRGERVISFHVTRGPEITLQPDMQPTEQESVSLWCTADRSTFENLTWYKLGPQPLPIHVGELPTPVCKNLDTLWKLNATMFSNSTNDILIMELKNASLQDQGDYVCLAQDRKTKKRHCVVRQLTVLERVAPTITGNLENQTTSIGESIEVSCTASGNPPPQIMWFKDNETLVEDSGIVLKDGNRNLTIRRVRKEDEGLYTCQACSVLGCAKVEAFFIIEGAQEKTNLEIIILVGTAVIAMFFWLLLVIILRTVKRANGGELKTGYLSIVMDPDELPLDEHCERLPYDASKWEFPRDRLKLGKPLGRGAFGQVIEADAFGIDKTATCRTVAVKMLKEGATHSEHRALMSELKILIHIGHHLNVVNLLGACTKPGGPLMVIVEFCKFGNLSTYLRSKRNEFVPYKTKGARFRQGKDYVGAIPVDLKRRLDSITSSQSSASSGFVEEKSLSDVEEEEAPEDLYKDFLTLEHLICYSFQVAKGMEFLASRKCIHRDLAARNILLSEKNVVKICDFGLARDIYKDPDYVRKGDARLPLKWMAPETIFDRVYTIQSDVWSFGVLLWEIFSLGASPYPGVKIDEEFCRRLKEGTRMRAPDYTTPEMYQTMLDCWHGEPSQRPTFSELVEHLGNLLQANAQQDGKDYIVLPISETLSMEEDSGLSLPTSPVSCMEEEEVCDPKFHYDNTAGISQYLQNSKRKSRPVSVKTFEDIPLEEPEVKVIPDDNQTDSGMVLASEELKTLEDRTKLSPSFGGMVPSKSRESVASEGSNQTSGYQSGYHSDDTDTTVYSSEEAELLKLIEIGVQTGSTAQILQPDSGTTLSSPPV
Procedure, shortened: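 Read-out is phospho-KDR measured by ELISA in lysates of VEGF165-stimulated (100 ng/mL, 5 min) HUVEC that were serum-starved 24 h and then pre-exposed 1 h to compound across 8 doses in 0.3% DMSO. Unstimulated lysates defined 0% and stimulated vehicle lysates 100% activity; IC50 values come from 4-parameter logistic regression.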

[4] = molecular target: Mer (phospho-Mer, MERTK-transfected 293A cells) (Homo sapiens (Human), UniProt Q12866); assay: Mer autophosphorylation ELISA in transient transfected 293A cells (Example H); assay type: cell-based; conditions: cellular activity; Mer autophosphorylation ELISA in transient transfected 293A cells
Mer (phospho-Mer, MERTK-transfected 293A cells), sequence (Q12866 21-999): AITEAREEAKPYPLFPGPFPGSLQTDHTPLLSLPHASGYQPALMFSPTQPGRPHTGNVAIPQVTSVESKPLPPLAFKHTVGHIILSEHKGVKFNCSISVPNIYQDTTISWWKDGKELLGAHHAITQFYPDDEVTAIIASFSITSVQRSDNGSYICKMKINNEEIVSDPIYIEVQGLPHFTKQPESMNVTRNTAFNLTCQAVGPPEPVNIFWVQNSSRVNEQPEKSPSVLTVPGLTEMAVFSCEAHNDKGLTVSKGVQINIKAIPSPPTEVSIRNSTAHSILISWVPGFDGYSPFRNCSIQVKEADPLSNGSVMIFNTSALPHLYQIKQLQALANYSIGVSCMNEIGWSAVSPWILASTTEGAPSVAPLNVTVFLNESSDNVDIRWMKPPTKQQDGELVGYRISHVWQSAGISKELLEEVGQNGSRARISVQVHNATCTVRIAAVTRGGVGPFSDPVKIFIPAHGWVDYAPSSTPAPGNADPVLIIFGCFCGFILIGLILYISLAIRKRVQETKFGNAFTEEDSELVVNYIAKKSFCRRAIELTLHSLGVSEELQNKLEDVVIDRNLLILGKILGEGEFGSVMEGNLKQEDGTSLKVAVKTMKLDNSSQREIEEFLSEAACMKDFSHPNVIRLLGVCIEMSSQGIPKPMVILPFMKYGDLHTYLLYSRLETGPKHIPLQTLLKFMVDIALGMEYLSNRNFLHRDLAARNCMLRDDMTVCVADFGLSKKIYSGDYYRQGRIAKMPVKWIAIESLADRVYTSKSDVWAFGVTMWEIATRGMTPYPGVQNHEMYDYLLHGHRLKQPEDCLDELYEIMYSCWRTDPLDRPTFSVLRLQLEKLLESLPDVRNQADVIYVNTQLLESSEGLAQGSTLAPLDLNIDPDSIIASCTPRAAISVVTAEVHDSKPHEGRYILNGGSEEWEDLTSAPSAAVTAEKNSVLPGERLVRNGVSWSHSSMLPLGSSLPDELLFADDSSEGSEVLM
Procedure, shortened: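 MERTK-transfected 293A; 8-pt dose, 1 h, serum-free, 0.3% DMSO. Cold lysis with orthovanadate and protease/phosphatase inhibitors. Phospho-Mer by DuoSet IC ELISA vs phospho-Mer standard. IC50: 4-PL fit; DMSO = 100%, reference inhibitor = 0%.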

Human KDR (residues 790-1356), sequence (P35968 790-1356): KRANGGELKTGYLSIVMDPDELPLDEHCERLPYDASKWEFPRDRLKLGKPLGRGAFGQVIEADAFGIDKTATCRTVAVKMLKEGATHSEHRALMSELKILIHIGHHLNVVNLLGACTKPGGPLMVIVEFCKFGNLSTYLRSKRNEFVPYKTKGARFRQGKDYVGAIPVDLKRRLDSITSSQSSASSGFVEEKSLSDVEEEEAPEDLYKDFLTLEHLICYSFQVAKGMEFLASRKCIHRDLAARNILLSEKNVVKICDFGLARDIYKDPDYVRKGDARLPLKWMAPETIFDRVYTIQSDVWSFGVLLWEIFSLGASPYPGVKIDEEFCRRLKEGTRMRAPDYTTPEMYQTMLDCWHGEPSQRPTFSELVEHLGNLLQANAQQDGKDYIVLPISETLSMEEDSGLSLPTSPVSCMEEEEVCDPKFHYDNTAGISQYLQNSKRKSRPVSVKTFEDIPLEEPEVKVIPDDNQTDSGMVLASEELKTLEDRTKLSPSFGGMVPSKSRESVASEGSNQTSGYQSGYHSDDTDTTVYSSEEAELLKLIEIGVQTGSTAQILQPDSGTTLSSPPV

Compound | IC50 [1] | IC50 [2] | IC50 [3] | IC50 [4]
C=C(C)c1cnc2c(Oc3ccc(NC(=O)c4c(C)nc(C)c(-c5ccc(F)cc5)c4O)cc3)ccnc2c1 [Compound 455, 5-(4-fluorophenyl)-4-hydroxy-2,6-dimethyl-N-[4-[(7-prop-1-en-2-yl-1,5-naphthyridin-4-yl)oxy]phenyl]pyridine-3-carboxamide] | < 100 nM | < 100 nM | < 100 nM | < 100 nM
CCc1nc(C)c(-c2ccc(F)cc2C)c(O)c1C(=O)Nc1ccc(Oc2ccnc3ccc(OC)nc23)cc1 [Compound 526, 2-ethyl-5-(4-fluoro-2-methylphenyl)-4-hydroxy-N-[4-[(6-methoxy-1,5-naphthyridin-4-yl)oxy]phenyl]-6-methylpyridine-3-carboxamide] | > 300 nM | 100 to 300 nM | < 100 nM | < 100 nM
COc1cc2nccc(Oc3ccc(NC(=O)c4c(C)n(C)c(C)c(-c5ccc(F)cc5)c4=O)cc3F)c2nc1OC [Compound 511, N-[4-[(6,7-dimethoxy-1,5-naphthyridin-4-yl)oxy]-3-fluorophenyl]-5-(4-fluorophenyl)-1,2,6-trimethyl-4-oxopyridine-3-carboxamide] | 100 to 300 nM | < 100 nM | 100 to 300 nM | < 100 nM
COc1cnc2c(Oc3ccc(NC(=O)c4c(C)n(C)c(C)c(-c5ccc(F)cc5)c4=O)cc3F)ccnc2c1 [Compound 508, N-[3-fluoro-4-[(7-methoxy-1,5-naphthyridin-4-yl)oxy]phenyl]-5-(4-fluorophenyl)-1,2,6-trimethyl-4-oxopyridine-3-carboxamide] | > 300 nM | < 100 nM | > 300 nM | < 100 nM
COc1cc2nccc(Oc3ccc(NC(=O)c4cn(C5CCCC5)c(C)c(-c5ccc(F)c(Cl)c5)c4=O)cc3F)c2nc1OC [Compound 27, 5-(3-Chloro-4-fluorophenyl)-1-cyclopentyl-N-[4-[(6,7-dimethoxy-1,5-naphthyridin-4-yl)oxy]-3-fluorophenyl]-6-methyl-4-oxopyridine-3-carboxamide] |  |  | < 100 nM | < 100 nM
COc1cc2nccc(Oc3ccc(NC(=O)c4cn(C(C)C)c(C)c(-c5ccc(F)c(Cl)c5)c4=O)cc3F)c2nc1OC [Compound 24, 5-(3-Chloro-4-fluorophenyl)-N-[4-[(6,7-dimethoxy-1,5-naphthyridin-4-yl)oxy]-3-fluorophenyl]-6-methyl-4-oxo-1-propan-2-ylpyridine-3-carboxamide] |  |  | 100 to 300 nM | < 100 nM
CNc1ncc(C(=O)Nc2ccc(Oc3ccnc4cc(OC)c(OC)nc34)c(F)c2)c(=O)n1-c1ccc(F)cc1 [Compound 99, N-[4-[(6,7-Dimethoxy-1,5-naphthyridin-4-yl)oxy]-3-fluorophenyl]-1-(4-fluorophenyl)-2-(methylamino)-6-oxopyrimidine-5-carboxamide] |  |  | < 100 nM | < 100 nM
COc1cc2nccc(Oc3ccc(NC(=O)c4cncc(-c5ccc(F)cc5)c4O)cc3F)c2nc1OC [Compound 42, N-[4-[(6,7-Dimethoxy-1,5-naphthyridin-4-yl)oxy]-3-fluorophenyl]-5-(4-fluorophenyl)-4-hydroxypyridine-3-carboxamide] |  |  | < 100 nM | < 100 nM
COc1cc2nccc(Oc3ccc(NC(=O)c4cn(C(C)C)c(C)c(-c5ccc(Cl)c(Cl)c5)c4=O)cc3F)c2nc1OC [Compound 25, 5-(3,4-Dichlorophenyl)-N-[4-[(6,7-dimethoxy-1,5-naphthyridin-4-yl)oxy]-3-fluorophenyl]-6-methyl-4-oxo-1-propan-2-ylpyridine-3-carboxamide] |  |  | 100 to 300 nM | < 100 nM
COc1cc2nccc(Oc3ccc(NC(=O)c4cn(C5CCCC5)cc(-c5ccc(F)cc5)c4=O)cc3F)c2nc1OC [Compound 46, 1-Cyclopentyl-N-[4-[(6,7-dimethoxy-1,5-naphthyridin-4-yl)oxy]-3-fluorophenyl]-5-(4-fluorophenyl)-4-oxopyridine-3-carboxamide] |  |  | 100 to 300 nM | < 100 nM
COc1cc2nccc(Oc3ccc(NC(=O)c4cn(C5COC5)cc(-c5ccc(F)cc5)c4=O)cc3F)c2nc1OC [Compound 47, N-[4-[(6,7-Dimethoxy-1,5-naphthyridin-4-yl)oxy]-3-fluorophenyl]-5-(4-fluorophenyl)-1-(oxetan-3-yl)-4-oxopyridine-3-carboxamide] |  |  | > 300 nM | < 100 nM
COc1cc2nccc(Oc3ccc(NC(=O)c4cn(C(C)C)c(C)c(-c5ccc(F)cc5)c4=O)cc3F)c2cc1OC [Compound 22, N-[4-(6,7-Dimethoxyquinolin-4-yl)oxy-3-fluorophenyl]-5-(4-fluorophenyl)-6-methyl-4-oxo-1-propan-2-ylpyridine-3-carboxamide] |  |  | 100 to 300 nM | < 100 nM
COc1cc2nccc(Oc3ccc(NC(=O)c4cn(C)cc(-c5ccc(F)cc5)c4=O)cc3F)c2nc1OC [Compound 45, N-[4-[(6,7-Dimethoxy-1,5-naphthyridin-4-yl)oxy]-3-fluorophenyl]-5-(4-fluorophenyl)-1-methyl-4-oxopyridine-3-carboxamide] |  |  | < 100 nM | < 100 nM
COc1cc2nccc(Oc3ccc(NC(=O)c4c[nH]c(=S)n(-c5ccc(F)cc5)c4=O)cc3F)c2nc1OC [Compound 104, N-[4-[(6,7-Dimethoxy-1,5-naphthyridin-4-yl)oxy]-3-fluorophenyl]-3-(4-fluorophenyl)-4-oxo-2-sulfanylidene-1H-pyrimidine-5-carboxamide] |  |  | < 100 nM | < 100 nM
COc1cc2nccc(Oc3ccc(NC(=O)c4cn(C(C)C)c(C)c(-c5ccc(F)cc5)c4=O)cc3F)c2nc1OC [Compound 21, N-[4-[(6,7-Dimethoxy-1,5-naphthyridin-4-yl)oxy]-3-fluorophenyl]-5-(4-fluorophenyl)-6-methyl-4-oxo-1-propan-2-ylpyridine-3-carboxamide] |  |  | < 100 nM | < 100 nM
COc1cc2nccc(Oc3ccc(NC(=O)c4cn(C(C)C)cc(-c5ccc(F)cc5)c4=O)cc3F)c2nc1OC [Compound 44, N-[4-[(6,7-Dimethoxy-1,5-naphthyridin-4-yl)oxy]-3-fluorophenyl]-5-(4-fluorophenyl)-4-oxo-1-propan-2-ylpyridine-3-carboxamide] |  |  | 100 to 300 nM | < 100 nM
COc1cc2nccc(Oc3ccc(NC(=O)c4cn(C5CC5)cc(-c5ccc(F)cc5)c4=O)cc3F)c2nc1OC [Compound 41, 1-Cyclopropyl-N-[4-[(6,7-dimethoxy-1,5-naphthyridin-4-yl)oxy]-3-fluorophenyl]-5-(4-fluorophenyl)-4-oxopyridine-3-carboxamide] |  |  | 100 to 300 nM | < 100 nM
COc1cc2nccc(Oc3ccc(NC(=O)c4cn(C(C)C)cc(-c5ccc(F)cc5)c4=O)cc3F)c2cc1OC [Compound 43, N-[4-(6,7-Dimethoxyquinolin-4-yl)oxy-3-fluorophenyl]-5-(4-fluorophenyl)-4-oxo-1-propan-2-ylpyridine-3-carboxamide] |  |  | < 100 nM | < 100 nM
COc1cc2nccc(Oc3ccc(NC(=O)c4cn(C5CCCC5)c(C)c(-c5ccc(F)cc5)c4=O)cc3F)c2nc1OC [Compound 26] |  |  | < 100 nM | < 100 nM
COc1cc2nccc(Oc3ccc(NC(=O)c4cn(C(C)C)c(C)c(-c5ccc(Cl)c(Cl)c5)c4=O)cc3F)c2cc1OC [Compound 23, 5-(3,4-Dichlorophenyl)-N-[4-(6,7-dimethoxyquinolin-4-yl)oxy-3-fluorophenyl]-6-methyl-4-oxo-1-propan-2-ylpyridine-3-carboxamide] |  |  | > 300 nM | < 100 nM
